Laboratory results reported in PMC4955201, “α-Glucosidase inhibitors from the bark of Mangifera mekongensis” (Chemistry Central Journal, 2016).
Like-named read-outs stand apart in the source and are kept apart here.

Molecular target: T1, α-Glucosidase (EC 3.2.1.20) from Saccharomyces cerevisiae (Saccharomyces cerevisiae, UniProt P53341)
T1 construct: purchased Sigma Chemical Co. (St. Louis, MO, USA)
Experiment: biochemical
Type: biochemical
Details: for inhibition at 10 µM / inhibition at 25 µM / inhibition at 50 µM / inhibition at 100 µM / inhibition at 250 µM / inhibition at 1 µM / inhibition at 2.5 µM / inhibition at 5 µM: read-out: Inhibition (I %); for α-glucosidase inhibitory activity (in words): tested at 1 to 250 µM
Description: α-Glucosidase (EC 3.2.1.20) from Saccharomyces cerevisiae (750 UN) and p-nitrophenyl-α-D-glucopyranoside were obtained from Sigma Chemical Co. (St. Louis, MO, USA). […] Silica gel 60, 40–63 µm (230–400 mesh ASTM), for column chromatography was purchased from Scharlau (Barcelona, Spain). Analytical and preparative TLC were carried out on precoated Kiesegel 60F254 or RP-18F254 plates (0.25 or 0.5 mm thickness) (Merck, Germany). Other chemicals were of the highest grade available.
The inhibitory activity of α-glucosidase was determined according to the modified method of Kim et al.. 3 mM p-nitrophenyl-α-D-glucopyranoside (25 μL) and 0.2 U/mL α-glucosidase (25 μL) in 0.01 M phosphate buffer (pH = 7.0) were added to the sample solution (625 μL) to start the reaction. Each reaction was carried out at 37 °C for 30 min and stopped by adding 0.1 M Na2CO3 (375 μL). […] One unit of α-glucosidase activity was defined as amount of enzyme liberating p-nitrophenol ([…]) per min.

[1] = isolated compounds, pH 7.0, 37 °C, 30 min, read-out: α-Glucosidase inhibitory activity IC50

T1 sequence (P53341 whole entry): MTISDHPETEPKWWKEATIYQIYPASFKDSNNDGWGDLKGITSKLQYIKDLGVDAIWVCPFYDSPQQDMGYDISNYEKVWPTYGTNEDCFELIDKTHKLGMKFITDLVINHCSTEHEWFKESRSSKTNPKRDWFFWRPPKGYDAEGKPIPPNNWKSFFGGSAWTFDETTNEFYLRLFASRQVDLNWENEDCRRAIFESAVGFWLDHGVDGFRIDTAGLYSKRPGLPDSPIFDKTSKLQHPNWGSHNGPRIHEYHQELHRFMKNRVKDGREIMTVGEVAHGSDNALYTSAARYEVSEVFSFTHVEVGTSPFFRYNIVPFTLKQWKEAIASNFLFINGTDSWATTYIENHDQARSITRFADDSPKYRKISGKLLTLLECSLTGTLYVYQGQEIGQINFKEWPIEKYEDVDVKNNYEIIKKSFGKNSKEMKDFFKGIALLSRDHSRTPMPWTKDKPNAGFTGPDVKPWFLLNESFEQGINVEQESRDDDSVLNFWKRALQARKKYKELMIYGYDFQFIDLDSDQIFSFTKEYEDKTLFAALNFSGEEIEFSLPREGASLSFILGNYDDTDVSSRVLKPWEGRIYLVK

CCCCCCCCCCCCCCCC(=O)OC[C@H]1O[C@@H](O[C@H]2CC[C@@]3(C)C(=CC[C@H]4[C@@H]5CC[C@H]([C@H](C)CC[C@@H](CC)C(C)C)[C@@]5(C)CC[C@@H]43)C2)[C@H](O)[C@@H](O)[C@@H]1O [Compound 5, β-sitosteryl-3-O-β-D-glucopyranosyl-6′-O-palmitate]
IC50 [1]: 21.1 µM
inhibition at 10 µM: 32.1 ± 2.3%
inhibition at 25 µM: 49.7 ± 3.1%
inhibition at 50 µM: 75.9 ± 2.6%
inhibition at 100 µM: 90.9 ± 1.4%

CC(=CCCC(C)C1CCC2(C)C3CCC4C(C)(C)C(O)CCC45CC35CCC12C)C(=O)O (stereo not shown) [Compound 9, ambolic acid]
IC50: 112 µM
inhibition at 50 µM: 15.9 ± 1.1%
inhibition at 100 µM: 32.2 ± 1%
inhibition at 250 µM: 95.9 ± 1%

CC(=CCCC(C)C1CCC2(C)C3CCC4C(C)(C)C(=O)CCC45CC35CCC12C)C(=O)O (stereo not shown) [Compound 8, ambonic acid]
IC50: 1.2 µM
inhibition at 1 µM: 46.5 ± 1.1%
inhibition at 2.5 µM: 62.5 ± 1.1%
inhibition at 5 µM: 78.4 ± 1.6%
inhibition at 10 µM: 87.5 ± 1%

CC[C@H](CC[C@@H](C)[C@H]1CC[C@H]2[C@@H]3CC(=O)C4CC(=O)CC[C@]4(C)[C@H]3CC[C@]12C)C(C)C (stereo partly shown) [Compound 4, stigmastane-3,6-dione]
IC50 [1]: > 250 µM
α-glucosidase inhibitory activity (in words): inactive

CCC(CCC(C)C1CCC2C3CC=C4CC(OC(=O)CCCCCCCC(=O)O)CCC4(C)C3CCC12C)C(C)C (stereo not drawn) [Compound 2, 3β-(8-carboxyoctanoyl)sitosterol]
IC50 [1]: 2.5 µM
inhibition at 1 µM: 15.2 ± 1.2%
inhibition at 2.5 µM: 50.8 ± 1.1%
inhibition at 5 µM: 82.6 ± 1.4%
inhibition at 10 µM: 93.1 ± 1.2%

C[C@H]1O[C@H](O[C@H]2[C@H](O)[C@@H](O)[C@@H](O[C@H]3[C@H](O)[C@@H](O)C(O)O[C@@H]3CO)O[C@@H]2CO)[C@H](O)[C@@H](O)[C@@H]1N[C@H]1C=C(CO)[C@@H](O)[C@H](O)[C@H]1O (stereo partly shown) [Acarbose, reference compound]
inhibition at 50 µM: 9.8 ± 1.1%
inhibition at 100 µM: 21.2 ± 2.2%
inhibition at 250 µM: 59.8 ± 1.2%

CCCCCCCCCCCCCCCCCCC(=O)OC1CCC2(C)C(=CCC3C2CCC2(C)C(C(C)CCC(CC)C(C)C)CCC32)C1 (stereo not drawn) [Compound 1, 3β-nonadecanoylsitosterol]
IC50 [1]: 27.7 µM
inhibition at 10 µM: 24.4 ± 1.8%
inhibition at 25 µM: 38.6 ± 1.2%
inhibition at 50 µM: 67.7 ± 1.4%
inhibition at 100 µM: 91.8 ± 1.1%

CC[C@H](CC[C@@H](C)[C@H]1CC[C@H]2[C@@H]3CC=C4C[C@@H](O)CC[C@]4(C)[C@H]3CC[C@]12C)C(C)C [Compound 3, β-sitosterol]
IC50 [1]: > 250 µM
α-glucosidase inhibitory activity (in words): inactive
